The values that follow come from ChEMBL document CHEMBL1130899, “Development of dual-acting agents for thromboxane receptor antagonism and thromboxane synthase inhibition. 2. Design, synthesis, and evaluation of a novel series of phenyl oxazole derivatives” (Bioorg Med Chem Lett, 1998).

pIC50, pKd: −log10 of the molar value. Some results are limits rather than exact numbers.

Data set [1] concerns the target T1, Thromboxane A2 receptor (Homo sapiens, UniProt P21731).
T1 sequence (P21731 whole entry): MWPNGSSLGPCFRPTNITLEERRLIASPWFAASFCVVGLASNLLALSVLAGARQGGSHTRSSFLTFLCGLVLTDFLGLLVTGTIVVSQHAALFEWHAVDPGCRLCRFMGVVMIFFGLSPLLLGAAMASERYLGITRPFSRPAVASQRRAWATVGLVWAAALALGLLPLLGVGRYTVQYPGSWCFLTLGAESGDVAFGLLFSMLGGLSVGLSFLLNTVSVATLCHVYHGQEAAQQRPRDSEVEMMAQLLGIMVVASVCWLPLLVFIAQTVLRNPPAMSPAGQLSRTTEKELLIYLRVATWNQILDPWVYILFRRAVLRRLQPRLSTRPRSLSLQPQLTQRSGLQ
Description: In vitro thromboxane receptor antagonism was determined using a human platelet binding assay.

Data set [2] in a line: Partition coefficient (logP). The class given is physicochemical. The settings on record: octanol/water.
Data set [3] has as its target T2, Thromboxane-A synthase (Homo sapiens, UniProt P24557).
T2 sequence (P24557 whole entry): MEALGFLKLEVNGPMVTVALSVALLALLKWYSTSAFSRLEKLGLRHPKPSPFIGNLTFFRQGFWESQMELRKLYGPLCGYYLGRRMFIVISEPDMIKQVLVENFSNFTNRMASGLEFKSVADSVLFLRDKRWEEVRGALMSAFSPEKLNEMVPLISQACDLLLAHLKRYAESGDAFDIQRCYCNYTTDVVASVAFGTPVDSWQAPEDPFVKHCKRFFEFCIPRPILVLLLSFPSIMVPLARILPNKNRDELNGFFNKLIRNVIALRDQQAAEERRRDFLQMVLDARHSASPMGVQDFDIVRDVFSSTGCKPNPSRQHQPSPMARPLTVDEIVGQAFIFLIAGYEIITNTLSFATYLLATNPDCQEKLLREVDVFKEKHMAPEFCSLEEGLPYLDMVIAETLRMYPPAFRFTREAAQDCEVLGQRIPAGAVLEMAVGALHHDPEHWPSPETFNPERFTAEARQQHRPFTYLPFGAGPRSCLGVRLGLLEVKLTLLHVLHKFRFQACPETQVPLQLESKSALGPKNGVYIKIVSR
In words: In vitro inhibition of thromboxane synthase (TSI) activity was determined by using human serum levels of TXB2. The class given is cell-free.

`O=C(O)CCCC/C=C(\c1cccnc1)c1cccc(C2=N[C@@H](C(=O)NCCCCC3CCCCC3)CO2)c1` gave a pKd in data set [1] of 6.08.
Same read-out and setting: next, `O=C(O)CCCC/C=C(/c1ccc(-c2nc(C(=O)NCCCCC3CCCCC3)co2)cc1)c1cccnc1`: 6.83; `CCCCCNC(=O)[C@@H]1COC(c2ccc(/C(=C\CCCCC(=O)O)c3cccnc3)cc2)=N1`: 6.61.
As for `CCCCCNC(=O)c1coc(-c2ccc(/C(=C\CCCCC(=O)O)c3cccnc3)cc2)n1`, the logP in data set [2] amounted to 5.23. This compound gave a pIC50 in data set [3] of 7.51. This compound also gave a pKd in data set [1] of 6.82.
In turn, `O=C(O)CCCC/C=C(\c1ccc(-c2nc(C(=O)NCCCCC3CCCCC3)co2)cc1)c1cccnc1` registered a logP in data set [2] of 7.35. Further, the pIC50 in data set [3] was 6.26.
For the compound `O=C(O)CCCC/C=C(\c1ccccc1)c1cccnc1` [(E)-ISBOGREL], the pKd in data set [1] was 5.09.
`O=C(O)CCCC/C=C(\c1cccnc1)c1cccc(-c2nc(C(=O)NCCCCC3CCCCC3)co2)c1`: the pIC50 in data set [3] is 7.64. Besides, the pKd in data set [1] is 6.20.
Compound `O=C(O)CCCC/C=C(/c1ccc(C2=N[C@@H](C(=O)NCCCCC3CCCCC3)CO2)cc1)c1cccnc1` had a negative-log IC50 (pIC50) in data set [3] of under 5.00.
`O=C(O)CCCC/C=C(\c1ccc(C2=N[C@@H](C(=O)NCCCCC3CCCCC3)CO2)cc1)c1cccnc1` showed a pIC50 in data set [3] of 7.09.
Consider `O=C(O)CC/C=C(\c1ccc(-c2nc(C(=O)NCCCCC3CCCCC3)co2)cc1)c1cccnc1`, for which the pIC50 in data set [3] is 5.50. The pKd in data set [1] was 7.03.
In data set [1], `O=C(O)CCCC/C=C(/c1cccnc1)c1ccccc1-c1nc(C(=O)NCCCCC2CCCCC2)co1` showed a pKd of 6.27.
Still for that read-out and setting: next, `O=C(O)CCCC/C=C(\c1cccnc1)c1ccccc1-c1nc(C(=O)NCCCCC2CCCCC2)co1`: 5.82.
Consider `O=C(O)CCCC/C=C(/c1cccnc1)c1cccc(-c2nc(C(=O)NCCCCC3CCCCC3)co2)c1`, for which the pIC50 in data set [3] was 7.72. Moreover, the pKd in data set [1] is 7.91.
